In brackets after ≈: the same amount, converted by molar mass. Read-outs that look alike come from different tables or passages of the source. Marks after values point to notes of the source that are not given here.
Assays:
[1] = tested on: methicillin-sensitive Staphylococcus aureus (MSSA, ATCC6538 strain); assay: Mouse metal implant joint infection model, colony counts from pin and femur; assay type: in vivo; conditions: for Femur Mean Log10 CFU / Log10 CFU Reduction vs. day 14 control, Femur / Log10 CFU Reduction vs. day 14 control, Pin / Pin Mean Log10 CFU: day 14
Description: In this example, female mice aged 8-10 weeks were used and randomly grouped. Before the start of drug administration treatment, each mouse underwent a surgery involving the placement of a metal implant into the femoral-tibial joint and an intraarticular inoculation of methicillin-sensitive Staphylococcus aureus (MSSA, ATCC6538 strain) at the surgical site. Therapeutic agents were formulated as follows: • (1) compound of formula (I): when used as a therapeutic agent for intraarticular injection (IA), the compound was dissolved in 5% dextrose in water (D5W) and formulated to the required concentrations; when used as a therapeutic agent for intraperitoneal injection (IP), the compound was dissolved in a solvent system of ethanol/NaHCO3/6% Cremophor and formulated to the required concentrations; (2) vancomycin: the drug was dissolved in sterile water for injection (WFI) and formulated to the required concentration to obtain a therapeutic agent for intraarticular injection. [table] Samples were obtained from the surgical and inoculation sites of the mice, and colony counts are performed on the agar plates. The number of colonies converted to CFU/tissue by multiplying the number of colonies by the volume of the homogenate spotted and the dilution at which the colonies were counted (5-50 colonies/spot). The resulting value was expressed as log10 CFU/tissue and used to calculate the mean and standard deviations (the results are shown in Table 1).

[2] = tested on: methicillin-resistant Staphylococcus aureus (MRSA, ATCC43300 strain); assay: Rat PJI model: CFU count, scanning electron microscopy of prosthesis, H&E pathology of synovium; assay type: in vivo; conditions: for Tissue bacterial load in bone tissue / Tissue bacterial load in prosthesis / Tissue bacterial load in soft tissue: QD × 14 days, sample D 21
Description: In this example, rats aged about 17 weeks were used. Before the start of drug administration treatment, each rat underwent an aseptic surgery to insert an artificial prosthesis into the knee joint, followed by an intraarticular inoculation of methicillin-resistant Staphylococcus aureus (MRSA, ATCC43300 strain) at the surgical site.

MRSA ATCC43300 strain = assay: MIC (minimum inhibitory concentration) determination; assay type: cell-based; conditions: Staphylococcus aureus, read-out: MIC (minimum inhibitory concentration)
[3] = Pharmacokinetics after single intraarticular injection in beagle dogs (plasma and synovial fluid); assay type: in vivo; conditions: both sexes, dog, single intraarticular injection 3 mg/kg; for AUC(0-t) / Cmax / Tmax / half-life: mean
Method: In this example, an experiment with an animal model of male and female beagle dogs was used to evaluate the pharmacokinetic behavior after a single intraarticular injection of the compound of formula (I) in the knee. A total of 6 beagle dogs (3 males and 3 females) were used for this experiment. The experimental animals received a single intraarticular injection of 3 mg/kg of the compound of formula (I) in the left joint, and a single intraarticular injection of 0.1 mL/kg of the vehicle (injection solution of 5% dextrose in water) in the right joint. From the experimental animals, plasma samples were collected before administration (0 hour) and at 0.25 hour (15 minutes), 3 hours, 9 hours, 12 hours, 24 hours, 36 hours, 48 hours, and 72 hours after administration, and left knee synovial fluid samples were collected at 12 hours, 36 hours, and 60 hours after administration. The concentrations of the compound of formula (I) in the plasma and synovial fluid samples were determined using high-performance liquid chromatography-tandem mass spectrometry (LC-MS/MS).

Staphylococcus aureus [4] = assay: MIC90; assay type: cell-based; conditions: against Staphylococcus aureus
[5] = tested on: Staphylococcus epidermidis; assay: MIC90; assay type: cell-based; conditions: against Staphylococcus epidermidis
Staphylococcus aureus [6] = assay: Biofilm bactericidal activity MBBC90; assay type: cell-based; conditions: against Staphylococcus aureus
[7] = tested on: Staphylococcus epidermidis; assay: Biofilm bactericidal activity MBBC90; assay type: cell-based; conditions: against Staphylococcus epidermidis
[8] = 5 mg/kg, 0.2 mL IP, BID × 7 days
[9] = 15 mg/kg, 0.2 mL IP, BID × 7 days
[10] = 15 mg/kg, 25 μL IA, QD × 7 days
[11] = 45 mg/kg, 0.2 mL IP, BID × 7 days
[12] = 45 mg/kg, 25 μL IA, QD × 7 days
[13] = intraarticular administration, all IA dose groups (5-45 mg/kg)
[14] = group T2.5, 2.5 mg/kg intraarticular
[15] = group T5, 5 mg/kg intraarticular
[16] = group T10, 10 mg/kg intraarticular

In the case of `CO[C@H]1/C=C/O[C@@]2(C)Oc3c(C)c(O)c4c(O)c(c(/C=N/N5CCC(N(C)C6([C@@H]7CCN(c8c(F)cn9c(=O)c(C(=O)O)cc(C%10CC%10)c9c8C)C7)CC6)CC5)c(O)c4c3C2=O)NC(=O)/C(C)=C\C=C\[C@H](C)[C@H](O)[C@@H](C)[C@@H](O)[C@@H](C)[C@H](OC(C)=O)[C@@H]1C` [compound of formula (I)], the “Femur Mean Log10 CFU” value [1, 8] is reported as 6.51 Log10 CFU, the “Log10 CFU Reduction vs. day 14 control, Femur” value [1, 8] is reported as −0.37 Log10 CFU and the “Log10 CFU Reduction vs. day 14 control, Pin” value [1, 8] is reported as −0.51 Log10 CFU. For the same compound, the “Pin Mean Log10 CFU” value [1, 8] was 4.26 Log10 CFU, the “Femur Mean Log10 CFU” value ([1]; 5 mg/kg, 25 μL IA, QD × 7 days) was 5.17 Log10 CFU and the “Log10 CFU Reduction vs. day 14 control, Femur” value ([1]; 5 mg/kg, 25 μL IA, QD × 7 days) was −1.71 Log10 CFU. The “Log10 CFU Reduction vs. day 14 control, Pin” value ([1]; 5 mg/kg, 25 μL IA, QD × 7 days) was −2.50 Log10 CFU, the “Pin Mean Log10 CFU” value ([1]; 5 mg/kg, 25 μL IA, QD × 7 days) was 2.27 Log10 CFU and the “Femur Mean Log10 CFU” value [1, 9] was 5.33 Log10 CFU. The “Log10 CFU Reduction vs. day 14 control, Femur” value [1, 9] was −1.55 Log10 CFU, the “Log10 CFU Reduction vs. day 14 control, Pin” value [1, 9] was −2.25 Log10 CFU and the “Pin Mean Log10 CFU” value [1, 9] was 2.52 Log10 CFU. For the same compound, the “Femur Mean Log10 CFU” value [1, 10] was 3.76 Log10 CFU, the “Log10 CFU Reduction vs. day 14 control, Femur” value [1, 10] was −3.12 Log10 CFU and the “Log10 CFU Reduction vs. day 14 control, Pin” value [1, 10] was −2.54 Log10 CFU. The “Pin Mean Log10 CFU” value [1, 10] was 2.23 Log10 CFU, the “Femur Mean Log10 CFU” value [1, 11] was 3.42 Log10 CFU and the “Log10 CFU Reduction vs. day 14 control, Femur” value [1, 11] was −3.46 Log10 CFU. For the same compound, the “Log10 CFU Reduction vs. day 14 control, Pin” value [1, 11] was −2.72 Log10 CFU, the “Pin Mean Log10 CFU” value [1, 11] was 2.05 Log10 CFU and the “Femur Mean Log10 CFU” value [1, 12] was 3.46 Log10 CFU. For the same compound, the “Log10 CFU Reduction vs. day 14 control, Femur” value [1, 12] was −3.42 Log10 CFU, the “Log10 CFU Reduction vs. day 14 control, Pin” value [1, 12] was −2.72 Log10 CFU and the “Pin Mean Log10 CFU” value [1, 12] was 2.05 Log10 CFU. For the same compound, the “mean femur colony counts lower than those in the untreated control animals” value [1, 13] was 1.71-3.42 log10 CFU, the “mean pin colony counts lower than those in the untreated control animals” value [1, 13] was 2.5-2.72 logo CFU and the “Tissue bacterial load in bone tissue” value [2, 14] was 7083 ± 6280 CFU. The “Tissue bacterial load in prosthesis” value [2, 14] was 550 ± 207 CFU, the “Tissue bacterial load in soft tissue” value [2, 14] was 9717 ± 1387 CFU and the “Tissue bacterial load in bone tissue” value [2, 15] was 1383 ± 1068 CFU. The “Tissue bacterial load in prosthesis” value [2, 15] was 0 *** CFU, the “Tissue bacterial load in soft tissue” value [2, 15] was 5433 ± 3194 CFU and the “Tissue bacterial load in bone tissue” value [2, 16] was 2400 ± 1655 CFU. The “Tissue bacterial load in prosthesis” value [2, 16] was 0 *** CFU, the “Tissue bacterial load in soft tissue” value [2, 16] was 1517 ± 1011 CFU and the “pathological H&E staining of the synovial soft tissue (FIG. 2B)” value ([2]; high-dose group, 10 mg/kg) was “a significant reduction in inflammatory cell infiltration in the synovium”. The “scanning electron microscopy observation of prosthesis (FIG. 2A)” value (shortened to “scanning electron microscopy observation”) ([2]; high-dose group, 10 mg/kg) was “individual cocci embedded therein”, the “scanning electron microscopy observation” value ([2]; low-dose group, 2.5 mg/kg) was “the formation of a relatively large number of colonies could still be observed” and the “scanning electron microscopy observation” value ([2]; medium-dose group, 5 mg/kg) was “individual bacteria still present”. For the same compound, the MIC (MRSA ATCC43300 strain; MRSA ATCC43300 strain) was 0.032 mg/L, the AUC(0-t) ([3]; plasma) was 20.8 ± 7.15 µg·h/mL and the Cmax ([3]; plasma) was 0.736 ± 0.247 µg/mL. The Tmax ([3]; plasma) was 24 h, the half-life ([3]; plasma) was 12 h and the AUC(0-t) ([3]; synovial fluid) was 1000 ± 1050 µg·h/mL. It also gave a Cmax ([3]; synovial fluid) of 77.4 ± 81.9 µg/mL, a Tmax ([3]; synovial fluid) of 12 h and a half-life ([3]; synovial fluid) of 6.81 h. The Kp ([3]; synovial fluid/plasma, read-out: AUC ratio = AUC0-last in synovial fluid/AUC0-last in plasma) was 46.1, the MIC90 (Staphylococcus aureus [4]) was 0.015 mg/L and the MIC90 [5] was 0.008 mg/L. For the same compound, the “biofilm bactericidal activity MBBC90” value (Staphylococcus aureus [6]) was 2000 ng/mL and the “biofilm bactericidal activity MBBC90” value [7] was 250 ng/mL.
In the case of `CN[C@H](CC(C)C)C(=O)N[C@H]1C(=O)N[C@@H](CC(N)=O)C(=O)N[C@H]2C(=O)N[C@H]3C(=O)N[C@H](C(=O)N[C@H](C(=O)O)c4cc(O)cc(O)c4-c4cc3ccc4O)[C@H](O)c3ccc(c(Cl)c3)Oc3cc2cc(c3O[C@@H]2O[C@H](CO)[C@@H](O)[C@H](O)[C@H]2O[C@H]2C[C@](C)(N)[C@H](O)[C@H](C)O2)Oc2ccc(cc2Cl)[C@H]1O` [Vancomycin, reference compound], the “Femur Mean Log10 CFU” value [1, 12] is reported as 6.08 Log10 CFU, the “Log10 CFU Reduction vs. day 14 control, Femur” value [1, 12] is reported as −0.80 Log10 CFU and the “Log10 CFU Reduction vs. day 14 control, Pin” value [1, 12] is reported as −1.28 Log10 CFU. The “Pin Mean Log10 CFU” value [1, 12] was 3.49 Log10 CFU, the “Tissue bacterial load in bone tissue” value ([2]; group Van, 44 mg/kg) was 11733 ± 8583 CFU and the “Tissue bacterial load in prosthesis” value ([2]; group Van, 44 mg/kg) was 1783 ± 1136 CFU. The “Tissue bacterial load in soft tissue” value ([2]; group Van, 44 mg/kg) was 1050 ± 1174 CFU, the “pathological H&E staining of the synovial soft tissue (FIG. 2B)” value ([2]; vancomycin group, 44 mg/kg) was “a significant reduction in inflammatory cell infiltration in the synovium” and the “scanning electron microscopy observation” value ([2]; vancomycin treatment group, 44 mg/kg) was “a relatively large number of bacteria still remained”. It also gave an MIC (MRSA ATCC43300 strain) of 0.5 mg/L (≈ 0.345 µM).
